One assay deals with T1, MtCA1 (Mycobacterium tuberculosis, UniProt P9WPJ7).
T1 construct: made in house
The assay can be described thus: biochemical. The following applies: for Selectivity Index (SI) hCA II/MtCA1: ratio of Ki values; for Ki: stopped-flow CO2 hydrase assay, mean from three assays, read-out: Ki MtCA1.

The target in a further assay is hCA II. Set-up: method as in PMID 31794211. To be noted: stopped-flow CO2 hydrase assay; cited from earlier work.
The next assay concerns the target MtCA3 (Mycobacterium tuberculosis, UniProt P96878). As to the kind of experiment: biochemical. The following applies: for Selectivity Index (SI) hCA II/MtCA3: ratio of Ki values; for Ki: stopped-flow CO2 hydrase assay, mean from three assays.
A further assay addresses hCA I. Set-up: method as in PMID 31794211. The following applies: stopped-flow CO2 hydrase assay; cited from earlier work.
In the next assay the target is T2, MtCA2 (Mycobacterium tuberculosis, UniProt P9WPJ9).
T2 construct: made in house
The assay can be described thus: stopped-flow CO2 hydrase assay, MtCA2. Type of assay: biochemical. To be noted: for Selectivity Index (SI) hCA II/MtCA2: ratio of Ki values. How it is done: BTDs 2a-2t were submitted to a stopped-flow CO2 hydrase kinetic assay to evaluate the inhibitory profile against the mycobacterial β-CAs MtCA1, MtCA2, MtCA3 (Table 1), in comparison to the inhibitory effect on hCA I and II, which were selected due to their abundance in the human organism and thus off-target in this study.
A stopped-flow instrument from Applied Photophysics was utilized to assess the inhibition of CA-catalyzed CO2 hydration activity. […] The assay employed 20 mM HEPES (pH 8.3) as a buffer and 20 mM Na2SO4 to maintain constant ionic strength. The investigation focused on the initial rates of the CA-catalyzed CO2 hydration reaction over a duration of 10–100 s. CO2 concentrations ranging from 1.7 to 17 mM were employed to determine kinetic parameters and inhibition constants. For each inhibitor, a minimum of six traces of the initial 5–10% of the reaction were utilized to determine the initial velocity. Uncatalyzed rates were determined in a similar manner and subtracted from the overall observed rates. Inhibitor stock solutions (0.1 mM) were initially prepared in distilled–deionized water, followed by subsequent dilutions up to 0.01 nM with the assay buffer. To allow for the formation of the E-I complex, inhibitor and enzyme solutions were preincubated together for 15 min at room temperature before the assay. The inhibition constants were derived through nonlinear least-squares methods using PRISM and the Cheng–Prusoff equation, as previously reported, representing the mean from at least three different determinations.

T1 sequence (P9WPJ7 whole entry): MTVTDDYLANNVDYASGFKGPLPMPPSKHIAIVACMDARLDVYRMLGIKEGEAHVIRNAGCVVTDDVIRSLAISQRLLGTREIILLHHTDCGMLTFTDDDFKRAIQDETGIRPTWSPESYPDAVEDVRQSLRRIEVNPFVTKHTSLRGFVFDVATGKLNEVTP
Chain of MtCA3 (P96878 550-764 limits assumed): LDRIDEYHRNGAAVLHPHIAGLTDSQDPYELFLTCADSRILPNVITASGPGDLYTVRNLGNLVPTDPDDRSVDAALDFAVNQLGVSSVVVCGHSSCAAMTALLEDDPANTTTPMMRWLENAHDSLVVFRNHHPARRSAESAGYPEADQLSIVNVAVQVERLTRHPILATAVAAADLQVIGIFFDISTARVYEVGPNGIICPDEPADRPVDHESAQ
T2 sequence (P9WPJ9 whole entry, looked up): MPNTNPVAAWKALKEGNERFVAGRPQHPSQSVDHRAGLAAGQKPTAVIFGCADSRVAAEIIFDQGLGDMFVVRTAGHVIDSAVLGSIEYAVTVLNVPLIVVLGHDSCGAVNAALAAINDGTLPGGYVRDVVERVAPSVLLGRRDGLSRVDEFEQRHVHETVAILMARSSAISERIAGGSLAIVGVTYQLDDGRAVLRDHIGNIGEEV

Regarding `O=C1Nc2c(ccc3ccccc23)S(=O)(=O)N1` [2n], on MtCA1, the “Selectivity Index (SI) hCA II/MtCA1” value is listed as 0.5. Moreover, the inhibitory constant (Ki) at MtCA1 is 1040 ± 41 nM; at hCA II, 484 nM; on MtCA3, 120 ± 8 nM; on hCA I, 2070 nM; on MtCA2, 995 ± 35 nM. Besides, the “Selectivity Index (SI) hCA II/MtCA3” value at MtCA3 stood at 4.0. On MtCA2, the “Selectivity Index (SI) hCA II/MtCA2” value was 0.5.

For the compound `O=C1Nc2ccc(Br)cc2S(=O)(=O)N1` [2l], the “Selectivity Index (SI) hCA II/MtCA1” value at MtCA1 is given as 0.8. The Ki on MtCA1 is 2960 ± 213 nM; at hCA II, 2360 nM; on MtCA3 it was 90.1 ± 6.7 nM; on hCA I, 4400 nM; at MtCA2 it was 200 ± 14 nM. Also, the “Selectivity Index (SI) hCA II/MtCA3” value at MtCA3 came out at 26.2. The “Selectivity Index (SI) hCA II/MtCA2” value at MtCA2 was 11.8.

As to `O=C1Nc2ccc(Cl)cc2S(=O)(=O)N1` [2j], on MtCA1, the “Selectivity Index (SI) hCA II/MtCA1” value was 0.5. Moreover, the Ki is 2460 ± 174 nM at MtCA1; 1140 nM at hCA II; 39.8 ± 2.2 nM on MtCA3; 1860 nM at hCA I; 67.1 ± 4.3 nM at MtCA2. The “Selectivity Index (SI) hCA II/MtCA3” value on MtCA3 is 28.7. The “Selectivity Index (SI) hCA II/MtCA2” value on MtCA2 was found to be 17.0.

Turning to `Cc1ccc(C)c2c1NC(=O)NS2(=O)=O` [2e], the “Selectivity Index (SI) hCA II/MtCA1” value at MtCA1 was below 0.2. For the same compound, the Ki at MtCA1 is above 10000 nM; on hCA II, 2190 nM; on MtCA3, 1540 ± 91 nM; at hCA I, 2540 nM; at MtCA2, 2370 ± 167 nM. The “Selectivity Index (SI) hCA II/MtCA3” value on MtCA3 is on record as 1.4. For the same compound, the “Selectivity Index (SI) hCA II/MtCA2” value at MtCA2 came to 0.9.

Turning to `O=C1NS(=O)(=O)c2cccc3c2N1CC3` [2q], at MtCA1, the “Selectivity Index (SI) hCA II/MtCA1” value amounted to 1.2. For the same compound, the Ki on MtCA1 is 883 ± 24 nM; at hCA II, 1060 nM; on MtCA3, 76.2 ± 5.6 nM; at hCA I, 6860 nM; at MtCA2, 599 ± 31 nM. For the same compound, on MtCA3, the “Selectivity Index (SI) hCA II/MtCA3” value is 13.9. In addition, the “Selectivity Index (SI) hCA II/MtCA2” value on MtCA2 was 1.8.

`Cc1cccc2c1NC(=O)NS2(=O)=O` [2b]: the “Selectivity Index (SI) hCA II/MtCA1” value at MtCA1 was determined as 0.1. The Ki was 1460 ± 101 nM on MtCA1; 144 nM on hCA II; 21.3 ± 1.7 nM on MtCA3; 969 nM on hCA I; 58.5 ± 1.7 nM at MtCA2. For the same compound, the “Selectivity Index (SI) hCA II/MtCA3” value on MtCA3 is listed as 6.8. For the same compound, on MtCA2, the “Selectivity Index (SI) hCA II/MtCA2” value came to 2.5.

Turning to `COc1ccc2c(c1)S(=O)(=O)NC(=O)N2` [2m], the “Selectivity Index (SI) hCA II/MtCA1” value at MtCA1 is 0.7. Also, the Ki on MtCA1 was 2760 ± 166 nM; at hCA II, 1920 nM; at MtCA3, 59.2 ± 4.2 nM; on hCA I, 3810 nM; on MtCA2, 152 ± 11 nM. The “Selectivity Index (SI) hCA II/MtCA3” value on MtCA3 was 32.5. Besides, the “Selectivity Index (SI) hCA II/MtCA2” value on MtCA2 is reported as 12.6.

`O=C1Nc2c(F)cccc2S(=O)(=O)N1` [2g]: on MtCA1, the “Selectivity Index (SI) hCA II/MtCA1” value came to 0.1. For the same compound, the inhibitory constant (Ki) was 1290 ± 96 nM at MtCA1; 140 nM at hCA II; 16.2 ± 1.1 nM at MtCA3; 547 nM on hCA I; 62.9 ± 2.5 nM at MtCA2. Also, the “Selectivity Index (SI) hCA II/MtCA3” value on MtCA3 is listed as 8.6. Further, the “Selectivity Index (SI) hCA II/MtCA2” value at MtCA2 was found to be 2.2.

Regarding `O=C1Nc2c(C(=O)O)cccc2S(=O)(=O)N1` [2r], on MtCA1, the “Selectivity Index (SI) hCA II/MtCA1” value is listed as 0.7. Moreover, the Ki on MtCA1 is 3280 ± 204 nM; on hCA II it was 2450 nM; at MtCA3, 65.4 ± 3.9 nM; at hCA I, 5780 nM; on MtCA2, 105 ± 6 nM. Further, the “Selectivity Index (SI) hCA II/MtCA3” value on MtCA3 turned out to be 37.4. Also, the “Selectivity Index (SI) hCA II/MtCA2” value on MtCA2 is 23.2.

Take `O=C1Nc2c(Cl)cccc2S(=O)(=O)N1` [2i]: at MtCA1, the “Selectivity Index (SI) hCA II/MtCA1” value amounted to 0.5. For the same compound, the inhibition constant Ki on MtCA1 is 1500 ± 89 nM; on hCA II it was 686 nM; at MtCA3 it was 44.3 ± 2.9 nM; on hCA I, 930 nM; on MtCA2, 214 ± 13 nM. Also, the “Selectivity Index (SI) hCA II/MtCA3” value on MtCA3 is recorded as 15.5. Further, the “Selectivity Index (SI) hCA II/MtCA2” value on MtCA2 came to 3.2.

Broadly, the Ki is a dissociation constant, usually derived from enzyme kinetics or from competition with a known ligand.

The values are drawn from publication PMC10932284 (International Journal of Molecular Sciences, 2024).
